In PMC10216605, “Developing In Vitro Models to Define the Role of Direct Mitochondrial Toxicity in Frequently Reported Drug-Induced Rhabdomyolysis” (Biomedicines, 2023):
Structures can show the parent of a compound that is named as a salt. Where two headings read alike, the source gives them in different places.

Experiments:
[1] = FAERS analysis of reported rhabdomyolysis cases per suspect drug; conditions: for (%) of total rhabdomyolysis cases / Number of Rhabdomyolysis Cases / Number of Rhabdomyolysis Cases (n = 6583): FAERS 2004 to 31 March 2020; for (%) of total rhabdomyolysis cases: of 27,140 cases; for Number of Rhabdomyolysis Cases: total 27,140 rhabdomyolysis cases, some cases with more than one suspected drug; for ROR (reported odds ratio): rhabdomyolysis with suspected drug vs all other drugs in FAERS; for Number of Death Cases (n = 576): monotherapy rhabdomyolysis cases with fatal outcome; for (%) of monotherapy rhabdomyolysis cases: of 6583 cases; for Number of Rhabdomyolysis Cases (n = 6583): suspected drug reported as a single drug used (monotherapy)
Protocol: (§1) Due to the quarterly updating of the database by the FDA, the searches were performed using the term “rhabdomyolysis” on one occasion to ensure the data were extracted at that specified period. All individual files were downloaded and saved from this one timepoint to specify the analysis period used in this study. Further refinement was performed using Microsoft Excel to extract only cases where the suspect drug was reported as a monotherapy, using the generic name of the suspect drugs. To ensure data accuracy, any case reported by a consumer or company underwent further checks to ensure it had not been previously reported by a healthcare provider, by confirming that no duplication of case ID was present.

L6 cells [2] = assay: Acute metabolic switch assay (cellular ATP content, glucose vs galactose media) in L6 differentiated myotubes; conditions: for IC50-ATPglu/IC50-ATPgal: ratio ≥ 2 = mitotoxic
Protocol: They were then seeded into collagen-coated wells (50 µg/mL in 0.02 M of acetic acid) at a density of 16,000 cells/100 μL/well (96 well plates) and 10,000 cells/100 μL/well (XF 96-well cell culture microplates). The cells were next incubated for 24 h in complete growth medium to promote adherence, after which the growth medium was removed and the cells washed twice with 1× HBSS. The L6 myoblasts were then cultured in differentiation medium consisting of high-glucose DMEM (25 mM) supplemented with L-glutamine (4 mM), sodium pyruvate (1 mM), HEPES (5 mM), and horse serum (2% v/v). Fresh differentiation medium was provided every 48 h for 7 days.
On the day of the assay, the media on the differentiated myotubes were replaced with either serum-free high-glucose (DMEM, 25 mM of glucose, 4 mM of L-glutamine, 1 mM of sodium pyruvate, and 5 mM of HEPES) or serum-free galactose (DMEM, 10 mM of galactose, 6 mM of L-glutamine, 1 mM of sodium pyruvate, and 5 mM of HEPES) media (100 µL) for 2 h (37 °C, 5% CO2). The glucose and galactose media were removed and replaced with drug-dosing solutions in either glucose or galactose media as appropriate, before incubation (2 h, 37 °C, 5% CO2). […] Vehicle control was included in each experiment.
The cellular ATP content was measured using a bioluminescence assay kit, alongside the concomitant measurement of protein using a bicinchoninic acid (BCA) assay kit to normalise ATP data to the total protein. Briefly, the cells were lysed using ATP lysis buffer (50 µL/well) and the plate was shaken (5 min). According to the manufacturer’s instructions, 40 µL of ATP reagent was added to each well containing 5 µL of cell lysate in a white 96-well plate. The […] luminescence signal was measured immediately using a plate reader (Varioskan, Thermo Scientific, Schaumburg, IL USA).

[3] = human
Protocol: as §1

L6 cells [4] = conditions: 6 h exposure
Protocol: The mitochondrial stress test allowed confirmation of mitotoxicity and further identification of the specific mechanisms through quantification of OXPHOS parameters: basal respiration (BR), ATP-linked respiration (ALR), and spare respiratory capacity (SRC). On the day of the assay, for the analysis of the acute injection of the drug on differentiated myotubes, the differentiation media was replaced with 175 µL of unbuffered Seahorse Assay media supplemented with 25 mM of glucose, 4 mM of L-glutamine, 1 mM of sodium pyruvate, and 5 mM of HEPES pre-warmed to 37 °C, then incubated in a CO2 free incubator at 37 °C for 1 h. Alternately, in the pre-treatment strategy, differentiated myotubes were pre-treated with the drug for 5 h in differentiation medium, then transferred to a CO2-free incubator at 37 °C for 1 h. Next, the differentiation media were replaced with 175 µL of unbuffered Seahorse Assay media supplemented with the constituents stated above. Briefly, using the XF^e96 instrument (Seahorse extracellular flux analyser, Agilent Technologies, Santa Clara, CA, USA), the oxygen partial pressure in each well was allowed to reach equilibrium for 10 min. The oxygen consumption rate (OCR) was measured three times at baseline; then, there was a 3 min mix for each measurement followed by a 3 min wait. […] In the acute injection method, the drug injection was only performed at the end of the basal measurement cycles, followed by the mitochondrial inhibitors described above. The duration of the assay was 120 min (acute injection) and 90 min (pre-treatment strategy). From each mitochondrial stress test was determined the OCR parameters of non-mitochondrial respiration (NMR = lowest measurement after rotenone/antimycin A); basal respiration (BR = last measurement before oligomycin − NMR); proton-leak (PL = BR − lowest respiration after oligomycin); ATP-linked respiration (ALR = BR − PL); maximum respiratory capacity (MRC = highest measurement after FCCP − NMR); and spare respiratory capacity (SRC = MRC − BR) [42, 43].

[5] = Rattus norvegicus, L6, 2 h, read-out: ATP IC50 Galactose
[6] = Rattus norvegicus, L6, 2 h, read-out: ATP IC50 Glucose

Row | SMILES | (%) of total rhabdomyolysis cases [1] [%] | Number of Rhabdomyolysis Cases [1] | ROR (reported odds ratio) [1] | Number of Death Cases (n = 576) [1] | (%) of monotherapy rhabdomyolysis cases [1] [%] | Number of Rhabdomyolysis Cases (n = 6583) [1] | further results
1 | CC(=O)Nc1ccc(O)cc1 [Acetaminophen] | 1.7 | 449 | 0.3 |  |  |  | 
2 | Cc1nnc2n1-c1ccc(Cl)cc1C(c1ccccc1)=NC2 [Alprazolam] | 1.1 | 290 | 0.4 |  |  |  | 
3 | O=C1CCc2ccc(OCCCCN3CCN(c4cccc(Cl)c4Cl)CC3)cc2N1 [Aripiprazole] | 1.5 | 419 | 0.4 |  |  |  | 
4 | CC(=O)Oc1ccccc1C(=O)O [Aspirin] | 1.2 | 313 | 0.2 |  |  |  | 
5 | CC(C)c1c(C(=O)Nc2ccccc2)c(-c2ccccc2)c(-c2ccc(F)cc2)n1CC[C@@H](O)C[C@@H](O)CC(=O)O [Atorvastatin acid] |  |  |  |  |  |  | IC50-ATPglu/IC50-ATPgal (L6 cells [2]; L6 cells, 2 h exposure): ~1 (n/d); IC50-ATPglu/IC50-ATPgal (L6 cells [2]; L6 cells, 2 h exposure, listed as atorvastatin acid): 1; IC50 (L6 cells [2]; read-out: ATP IC50 Galactose, L6 cells, 2 h exposure, galactose serum-free media, mean ± S.D. (n = 3)): > 300 µM; IC50 (L6 cells [2]; read-out: ATP IC50 Glucose, L6 cells, 2 h exposure, glucose serum-free media, mean ± S.D. (n = 3)): > 300 µM
6 | CC(C)c1c(C(=O)Nc2ccccc2)c(-c2ccccc2)c(-c2ccc(F)cc2)n1CC[C@@H](O)C[C@@H](O)CC(=O)O [Atorvastatin] | 12.2 | 3307 | 4.3 | 169 | 21.1 | 1386 | 
7 | CC[C@H]1OC(=O)[C@H](C)[C@@H](O[C@H]2C[C@@](C)(OC)[C@@H](O)[C@H](C)O2)[C@H](C)[C@@H](O[C@@H]2O[C@H](C)C[C@H](N(C)C)[C@H]2O)[C@](C)(OC)C[C@@H](C)C(=O)[C@H](C)[C@@H](O)[C@]1(C)O [Clarithromycin] | 1.6 | 427 | 1.2 |  |  |  | 
8 | CN1CCN(C2=Nc3cc(Cl)ccc3Nc3ccccc32)CC1 [Clozapine] | 1.1 | 286 |  | 12 | 1.8 | 116 | 
9 | CCCCCCCCCC(=O)N[C@@H](Cc1c[nH]c2ccccc12)C(=O)N[C@H](CC(N)=O)C(=O)N[C@@H](CC(=O)O)C(=O)N[C@@H]1C(=O)NCC(=O)N[C@@H](CCCN)C(=O)N[C@@H](CC(=O)O)C(=O)N[C@H](C)C(=O)N[C@@H](CC(=O)O)C(=O)NCC(=O)N[C@H](CO)C(=O)N[C@@H]([C@H](C)CC(=O)O)C(=O)N[C@@H](CC(=O)c2ccccc2N)C(=O)O[C@@H]1C [Daptomycin] |  |  |  | 18 |  |  | IC50-ATPglu/IC50-ATPgal (L6 cells [2]; L6 cells, 2 h exposure): ~1 (n/d); IC50-ATPglu/IC50-ATPgal (L6 cells [2]; L6 cells, 2 h exposure, listed as daptomycin): 1; IC50 (L6 cells [2]; [5]): > 100 µM; IC50 (L6 cells [2]; [6]): > 100 µM; (%) of monotherapy rhabdomyolysis cases [3]: 3.5%; (%) of total rhabdomyolysis cases [3]: 1.4%; Number of Rhabdomyolysis Cases [3]: 380; Number of Rhabdomyolysis Cases (n = 6583) [3]: 227; ROR (reported odds ratio) [3]: 3.2
10 | O=C1[C@H](CC[C@H](O)c2ccc(F)cc2)[C@@H](c2ccc(O)cc2)N1c1ccc(F)cc1 [Ezetimibe] | 1.9 | 501 | 2.6 | 6 | 2.5 | 166 | IC50-ATPglu/IC50-ATPgal (L6 cells [2]; L6 cells, 2 h exposure): ~1 (n/d); IC50-ATPglu/IC50-ATPgal (L6 cells [2]; L6 cells, 2 h exposure, listed as ezetimibe): 1; IC50 (L6 cells [2]; [5]): > 300 µM; IC50 (L6 cells [2]; [6]): > 300 µM
11 | NS(=O)(=O)c1cc(C(=O)O)c(NCc2ccco2)cc1Cl [Furosemide] | 1.8 | 480 | 0.8 |  |  |  | 
12 | Cc1ccc(C)c(OCCCC(C)(C)C(=O)O)c1 [Gemfibrozil] | 1.6 | 442 | 15.0 |  |  |  | ROR (reported odds ratio) ([1]; listed as gemfibrozil): 15
13 | O=C(CCCN1CCC(O)(c2ccc(Cl)cc2)CC1)c1ccc(F)cc1 [Haloperidol] | 1.1 | 310 | 1.3 |  |  |  | 
14 | Nc1nnc(-c2cccc(Cl)c2Cl)c(N)n1 [Lamotrigine] | 1.2 | 314 | 0.3 |  |  |  | 
15 | CC[C@@H](C(N)=O)N1CCCC1=O [Levetiracetam] | 2.2 | 588 | 0.9 | 8 | 5.9 | 386 | IC50-ATPglu/IC50-ATPgal (L6 cells [2]; L6 cells, 2 h exposure): ~1 (n/d); IC50-ATPglu/IC50-ATPgal (L6 cells [2]; L6 cells, 2 h exposure, listed as levetiracetam): 1; IC50 (L6 cells [2]; [5]): > 300 µM; IC50 (L6 cells [2]; [6]): > 300 µM
16 | CN(C)C(=N)N=C(N)N [Metformin] | 1.8 | 478 | 0.4 |  |  |  | 
17 | Cc1cc2c(s1)Nc1ccccc1N=C2N1CCN(C)CC1 [Olanzapine] |  |  |  | 23 |  |  | 
18 | COc1ccc2[nH]c([S+]([O-])Cc3ncc(C)c(OC)c3C)nc2c1 (centres unmarked) [Omeprazole] | 1.3 | 363 | 0.5 |  |  |  | 
19 | CC(C)C[C@H](CN)CC(=O)O [Pregabalin] | 1.6 | 442 |  | 13 | 2.0 | 132 | IC50 (L6 cells [2]; [6]): > 300 µM; Classification from pattern of changes in BR, ALR and SRC (L6 cells [4]): direct inhibitors of the electron transport chain
20 | CC(C)c1cccc(C(C)C)c1O [Propofol] | 1.6 | 434 | 2.2 | 70 | 2.7 | 179 | Mitotoxicity classification in acute metabolic switch assay (L6 cells [2]): multi-mechanistic; IC50 (L6 cells [2]; [5]): 242 ± 13.4 µM; IC50 (L6 cells [2]; [6]): > 300 µM; Classification from pattern of changes in BR, ALR and SRC (L6 cells [4]): direct inhibitors of the electron transport chain
21 | OCCOCCN1CCN(C2=Nc3ccccc3Sc3ccccc32)CC1 [Quetiapine] | 2.8 | 761 |  | 26 | 3.0 | 199 | 
22 | CC(C)c1nc(N(C)S(C)(=O)=O)nc(-c2ccc(F)cc2)c1/C=C/[C@@H](O)C[C@@H](O)CC(=O)O [Rosuvastatin] | 7.4 | 2008 | 2.9 | 47 | 17.0 | 1122 | IC50-ATPglu/IC50-ATPgal (L6 cells [2]; L6 cells, 2 h exposure): ~1 (n/d); IC50-ATPglu/IC50-ATPgal (L6 cells [2]; L6 cells, 2 h exposure, listed as rosuvastatin): 1; IC50 (L6 cells [2]; [5]): > 300 µM; IC50 (L6 cells [2]; [6]): > 300 µM
23 | CN[C@H]1CC[C@@H](c2ccc(Cl)c(Cl)c2)c2ccccc21 [Sertraline] | 1.3 | 347 | 0.4 |  |  |  | 
24 | CCC(C)(C)C(=O)O[C@H]1C[C@@H](C)C=C2C=C[C@H](C)[C@H](CC[C@@H](O)C[C@@H](O)CC(=O)O)[C@H]21 [Simvastatin acid, Simvastatin hydroxy acid ammonium salt] |  |  |  |  |  |  | IC50-ATPglu/IC50-ATPgal (L6 cells [2]; L6 cells, 2 h exposure): ~1 (n/d); IC50-ATPglu/IC50-ATPgal (L6 cells [2]; L6 cells, 2 h exposure, listed as simvastatin acid): 1; IC50 (L6 cells [2]; [5]): > 300 µM; IC50 (L6 cells [2]; [6]): > 300 µM
25 | COc1ccc(C(CN(C)C)C2(O)CCCCC2)cc1 (centres unmarked) [Venlafaxine] | 1.6 | 425 | 0.5 |  |  |  | 
